Experimental data as given in ChEMBL document CHEMBL1938369, “A small molecule inhibitor of p53-inducible protein phosphatase PPM1D” (Bioorg Med Chem Lett, 2012).
Activity calls are given as the source filed them. No cut-off for these calls is given here.

Legend:
[1] = target: T1, Protein phosphatase 1D (Homo sapiens) (UniProt O15297); assay: Inhibition of N-terminal histidine-tagged PPM1Dc at 4 uM after 10 mins by BIOMOL GREEN assay
T1 sequence (whole entry): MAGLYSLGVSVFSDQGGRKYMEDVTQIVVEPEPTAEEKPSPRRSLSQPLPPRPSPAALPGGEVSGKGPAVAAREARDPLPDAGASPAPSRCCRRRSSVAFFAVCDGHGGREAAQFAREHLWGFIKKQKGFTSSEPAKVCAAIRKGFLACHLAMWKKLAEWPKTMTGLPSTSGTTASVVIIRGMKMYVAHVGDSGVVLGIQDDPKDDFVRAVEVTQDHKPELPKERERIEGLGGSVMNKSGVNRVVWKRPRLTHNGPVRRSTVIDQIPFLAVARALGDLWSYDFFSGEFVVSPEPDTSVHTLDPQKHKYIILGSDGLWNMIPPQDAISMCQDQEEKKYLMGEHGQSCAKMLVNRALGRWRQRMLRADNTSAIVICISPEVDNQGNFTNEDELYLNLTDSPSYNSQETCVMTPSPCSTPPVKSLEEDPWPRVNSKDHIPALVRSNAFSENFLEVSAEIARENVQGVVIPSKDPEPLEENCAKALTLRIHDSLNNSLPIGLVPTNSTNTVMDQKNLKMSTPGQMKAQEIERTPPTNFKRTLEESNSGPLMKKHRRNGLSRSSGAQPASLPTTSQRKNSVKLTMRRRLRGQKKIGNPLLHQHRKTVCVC

MCF7 [2] = assay: Antiproliferative activity against human MCF7 cells overexpressing PPM1D at 40 uM after 1 to 5 days by trypan blue assay; assay type: functional
MCF7 [3] = assay: Induction of cell cycle arrest in human MCF7 cells assessed as accumulation at […] phase at 40 uM after 1 day by propidium iodide staining-based flow cytometry (reference value: 24 %); assay type: functional
MCF7 [4] = assay: Antiproliferative activity against human MCF7 cells overexpressing PPM1D after 1 to 5 days by trypan blue assay; assay type: functional, cell-based
MCF7 [5] = assay: Induction of cell cycle arrest in human MCF7 cells assessed as accumulation at Sub-G1 phase at 40 uM after 5 days by propidium iodide staining-based flow cytometry (reference value: 8.1 %); assay type: functional
MCF7 [6] = assay: Induction of cell cycle arrest in human MCF7 cells assessed as accumulation at Sub-G1 phase at 40 uM after 3 days by propidium iodide staining-based flow cytometry (reference value: 9.4 %); assay type: functional
[7] = target: T2, Protein phosphatase 1A (Homo sapiens) (UniProt P35813); assay: Inhibition of wild-type PPM1A expressed in BL21(DE3)pLysS cells at 40 uM after 10 mins by BIOMOL GREEN assay; assay type: cell-based
T2 sequence (whole entry): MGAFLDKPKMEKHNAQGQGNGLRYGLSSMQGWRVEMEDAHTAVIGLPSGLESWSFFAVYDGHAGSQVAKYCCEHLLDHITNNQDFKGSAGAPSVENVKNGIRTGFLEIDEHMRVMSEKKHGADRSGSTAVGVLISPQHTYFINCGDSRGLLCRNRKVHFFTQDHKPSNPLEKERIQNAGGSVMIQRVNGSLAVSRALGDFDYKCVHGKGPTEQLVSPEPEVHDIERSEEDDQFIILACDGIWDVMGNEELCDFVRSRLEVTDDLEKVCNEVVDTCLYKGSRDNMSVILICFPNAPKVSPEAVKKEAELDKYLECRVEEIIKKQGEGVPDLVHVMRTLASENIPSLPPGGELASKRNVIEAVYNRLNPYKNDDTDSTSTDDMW

[8] = Selectivity ratio for PPM1Dc over PPM1A
MCF7 [9] = assay: Induction of cell cycle arrest in human MCF7 cells assessed as accumulation at G2/M phase at 40 uM after 3 days by propidium iodide staining-based flow cytometry (reference value: 22.9 %); assay type: functional
MCF7 [10] = assay: Increase in PPM1D protein expression in human MCF7 cells at 10 uM after 24 hrs by immunofluorescence analysis; assay type: functional, cell-based
[11] = Inhibition of PP2A using Ac-DDEMT(P)GYVATR-NH2 as substrate at 40 uM after 10 mins by BIOMOL GREEN assay
A549 = assay: Antiproliferative activity against human A549 cells at 40 uM after 1 to 5 days by trypan blue assay; assay type: functional, cell-based
MCF7 [12] = assay: Induction of cell cycle arrest in human MCF7 cells assessed as accumulation at G2/M phase at 40 uM after 5 days by propidium iodide staining-based flow cytometry (reference value: 21.2 %); assay type: functional
MCF7 [13] = assay: Induction of cell cycle arrest in human MCF7 cells assessed as accumulation at G1 phase at 40 uM after 1 day by propidium iodide staining-based flow cytometry (reference value: 45.6 %); assay type: functional
[14] = target: T1, Protein phosphatase 1D (Homo sapiens); assay: Inhibition of PPM1D in human MCF7 cells assessed as increase in p53 phosphorylation at Ser15 by Western blot analysis; assay type: cell-based
[15] = target: T1, Protein phosphatase 1D (Homo sapiens); assay: Inhibition of PPM1D in UV-irradiated human MCF7 cells assessed as increase in p53 phosphorylation at Ser15 measuring p53 protein level by Western blot analysis; assay type: cell-based
MCF7 [16] = assay: Induction of cell cycle arrest in human MCF7 cells assessed as accumulation at Sub-G1 phase at 40 uM by propidium iodide staining-based flow cytometry; assay type: functional; conditions: TDE = time-dependent effect
MCF7 [17] = assay: Increase in PPM1D protein expression in human MCF7 cells by Western blot analysis; assay type: functional, cell-based
MCF7 [18] = assay: Induction of cell cycle arrest in human MCF7 cells assessed as accumulation at G1 phase at 40 uM after 5 days by propidium iodide staining-based flow cytometry (reference value: 57 %); assay type: functional
Protein phosphatase 1D = target: T3, Protein phosphatase 1D (Homo sapiens, UniProt O15297); assay: Inhibition of N-terminal histidine-tagged PPM1Dc after 10 mins using BIOMOL GREEN assay
T3 sequence (O15297 whole entry): T1 sequence (whole entry)

MCF7 [19] = assay: Induction of cell cycle arrest in human MCF7 cells assessed as increase in accumulation at Sub-G1 phase at 40 uM after 1 day by propidium iodide staining-based flow cytometry; assay type: functional
MCF7 [20] = assay: Induction of cell cycle arrest in human MCF7 cells assessed as accumulation at G2/M phase at 40 uM after 1 day by propidium iodide staining-based flow cytometry (reference value: 21.4 %); assay type: functional
MCF7 [21] = assay: Induction of cell cycle arrest in human MCF7 cells assessed as accumulation at G1 phase at 40 uM after 3 days by propidium iodide staining-based flow cytometry (reference value: 38.5 %); assay type: functional
MCF7 [22] = assay: Induction of cell cycle arrest in human MCF7 cells assessed as accumulation at […] phase at 40 uM after 3 days by propidium iodide staining-based flow cytometry (reference value: 29.3 %); assay type: functional
MCF7 [23] = assay: Induction of cell cycle arrest in human MCF7 cells assessed as accumulation at […] phase at 40 uM after 5 days by propidium iodide staining-based flow cytometry (reference value: 13.8 %); assay type: functional

In the case of `C[C@H]1C[C@@H](O)[C@H]2C[C@H](O)[C@@H]3[C@](C)(CO)C[C@H](O)C[C@@]3(C)[C@@H]2C1`, the inhibition [1] is reported as 6.3% and the Activity (MCF7 [2]) is reported as “inactive”.
`CC[Si](CC)(CC)O[C@@H]1C[C@H](C)C[C@@H]2[C@@H]1C[C@H](O[Si](C)(C)C(C)(C)C)[C@@H]1[C@](C)(CO)CC(=O)C[C@@]21C` showed an inhibition [1] of 79.4%.
In the case of `CC[Si](CC)(CC)O[C@@H]1C[C@H](C)C[C@@H]2[C@@H]1C[C@H](O[Si](C)(C)C(C)(C)C)[C@@H]1[C@](C)(CO)C[C@H](O)C[C@@]21C`, the inhibition [1] is reported as 97.1%, the Activity (MCF7 [3]) is reported as 29.8% and the Activity (MCF7 [4]) is reported as “Dose-dependent effect”. It also gave an Activity (MCF7 [5]) of 25.3%, an Activity (MCF7 [6]) of 16.4% and an inhibition [7] of 68%. The Selectivity ratio [8] was 50, the Activity (MCF7 [9]) was 28.2% and the Activity (MCF7 [10]) was “Active”. The inhibition [11] was 11%, the Activity (A549) was “inactive” and the Activity (MCF7 [12]) was 12.9%. The Activity (MCF7 [13]) was 39%, the inhibition [14] was “Active” and the inhibition [15] was “Active”. For the same compound, the Activity (MCF7 [16]) was “tde”, the Activity (MCF7 [17]) was “Active” and the Activity (MCF7 [2]) was >60%. For the same compound, the Activity (MCF7 [18]) was 46.8%, the IC50 (Protein phosphatase 1D) was 480 nM and the Activity (MCF7 [19]) was 5.3%. The Activity (MCF7 [20]) was 16.8%, the Activity (MCF7 [21]) was 39.3% and the Activity (MCF7 [22]) was 16%. The Activity (MCF7 [23]) was 15%.
Compound `C[C@H]1C[C@@H](O)[C@H]2C[C@H](O[Si](C)(C)C(C)(C)C)[C@@H]3[C@](C)(CO)C[C@H](O)C[C@@]3(C)[C@@H]2C1` has an inhibition [1] of 25.1%.
`CC[Si](CC)(CC)O[C@@H]1C[C@H](C)C[C@@H]2[C@@H]1C[C@H](O[Si](C)(C)C(C)(C)C)[C@H]1[C@@]2(C)C[C@@H]2C[C@@]1(C)C(O)O2` (stereo not given in full) showed an inhibition [1] of 87.1%.
